The assay deals with human calcitonin receptor (CTR) and RAMP3 (AMY3) (Homo sapiens, UniProt O60896+P30988). The assay is described as follows: Amylin Receptor cAMP Assay I. The format is cell-based. The settings on record: COS-7/AMY3 cells, cAMP Hi-range Kit, read-out: Amylin Receptor cAMP Stimulation Activity: EC50. An excerpt:
Amylin Receptor cAMP Assay I
AMYRs are heterodimers of the class B calcitonin (CT) G-protein-coupled receptor (CTR) and receptor activity-modifying proteins (RAMPs). All three RAMPs can interact with the CTR and form AMY1, AMY2, AMY3 with RAMP1, RAMP2 and RAMP3, respectively. Like other class B1 GPCRs, the CT receptor family is canonically coupled to Gs-mediated cAMP production, and measurement of cAMP accumulation has been the primary assay used to determine peptide selectivity and potency.
To optimize functional activity directed toward Gas coupling, COS-7 cells were stably transfected with human calcitonin receptor (CTR) and RAMP3, simultaneously. 100×concentration of compound working solutions were prepared (Agilent Technologies Bravo) with 4-fold serial dilution in 384-well Echo LDV plate (Labcyte, Cat #LP-0200). 100 nL/well 100× concentration of compound working solutions were moved to 384-well white low volume plate (Greiner, Cat #784075) using Labcyte ECHO550. 1×10^5 cells/mL COS-7/CTR or COS-7/AMY3 (HD Biosciences) cell suspensions prepared with assay buffer [DPBS containing 0.5 mM IBMX (Sigma, Cat #15879) and 0.1% BSA (GENVIEW, Cat #FAO16-100 g)], 10 μL cell suspensions were added to each well of previous generated assay plate which already contains 100 nL compound at 100× concentration using ThermoFisher Multidrop Combi (1000 cells/well). Seal the plate and incubate at 37° C. with 5% CO2 for 30 min.
After incubation, the cAMP assay signal was generated using cAMP Hi-range Kit (Cisbio). 5 μL cAMP-d2 working solution was added to each well, followed by 5 μL Anti-cAMP antibody-cryptate working solution which was added to each well using ThermoFisher Multidrop Combi. The samples were then incubated at room temperature for 1 hour protected from light. the fluorescence was read at 665 and 615 nm with Reader PerkinElmer EnVision.

A word on the EC50: it is the concentration that produces a half-maximal response.

Chain of human calcitonin receptor (CTR) and RAMP3 (AMY3) (O60896 24-148): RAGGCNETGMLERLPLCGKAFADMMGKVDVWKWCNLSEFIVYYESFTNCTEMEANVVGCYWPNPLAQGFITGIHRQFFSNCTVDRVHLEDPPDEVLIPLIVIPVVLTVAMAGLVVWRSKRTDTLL
Chain of human calcitonin receptor (CTR) and RAMP3 (AMY3) (P30988 25-474): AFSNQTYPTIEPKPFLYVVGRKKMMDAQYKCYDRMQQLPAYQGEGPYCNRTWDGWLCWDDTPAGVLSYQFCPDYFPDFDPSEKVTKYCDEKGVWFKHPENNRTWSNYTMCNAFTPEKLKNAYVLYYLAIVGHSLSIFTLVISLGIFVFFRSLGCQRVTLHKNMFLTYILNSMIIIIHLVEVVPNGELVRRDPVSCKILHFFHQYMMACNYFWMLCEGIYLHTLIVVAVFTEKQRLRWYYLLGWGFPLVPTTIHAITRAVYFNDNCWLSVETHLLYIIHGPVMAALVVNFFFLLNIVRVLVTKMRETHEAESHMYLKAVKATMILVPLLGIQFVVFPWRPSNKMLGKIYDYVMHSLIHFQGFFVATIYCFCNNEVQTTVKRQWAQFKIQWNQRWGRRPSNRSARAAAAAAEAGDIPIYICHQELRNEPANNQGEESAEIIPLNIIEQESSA

For the compound `COc1cccc2c1CC[C@H]2NC(=O)c1ccc(-c2c3c(nc(CCc4ccc(F)cc4)c2-c2nnc(C)o2)[C@H](C(C)C)NC3=O)s1` [Compound 3, N—[(R)-4-methoxy-1-indanyl]-5-{(S)-5-[2-(p-fluorophenyl)ethyl]-3-isopropyl-6-(5-methyl-1,3,4-oxadiazol-2-yl)-1-oxo-2,4-diaza-7-indanyl)-2-thenamide], the EC50 amounted to 70.2 nM.

On to `Cc1nnc(-c2c(CCc3ccccc3)nc3c(c2-c2ccc(C(=O)NCc4ccc(F)c(F)c4)s2)C(=O)N2CCC[C@@H]32)o1` [Compound 5, (S)—N-(3,4-difluorobenzyl)-5-(3-(5-methyl-1,3,4-oxadiazol-2-yl)-5-oxo-2-phenethyl-7,8,9,9a-tetrahydro-5H-pyrido[2,3-a]pyrrolizin-4-yl)thiophene-2-carboxamide], for which the 50% effective concentration (EC50) stood at 67.5 nM. As for `Cc1ccc(CCc2nc3c(c(-c4ccc(C(=O)NCc5ccc(F)c(F)c5)s4)c2-c2nnc(C)o2)C(=O)N2CCC[C@@H]32)nc1` [Compound 6, (S)—N-(3,4-difluorobenzyl)-5-(3-(5-methyl-1,3,4-oxadiazol-2-yl)-2-(2-(5-methylpyridin-2-yl)ethyl)-5-oxo-7,8,9,9a-tetrahydro-5H-pyrido[2,3-a]pyrrolizin-4-yl)thiophene-2-carboxamide], the EC50 came to 674 nM. As for `Cc1nnc(-c2c(CCc3ccc(F)cn3)nc3c(c2-c2ccc(C(=O)NCc4ccc(F)c(F)c4)s2)C(=O)N2CCC[C@@H]32)o1` [Compound 8, (S)—N-(3,4-difluorobenzyl)-5-(2-(2-(5-fluoropyridin-2-yl)ethyl)-3-(5-methyl-1,3,4-oxadiazol-2-yl)-5-oxo-7,8,9,9a-tetrahydro-5H-pyrido[2,3-a]pyrrolizin-4-yl)thiophene-2-carboxamide], the figure is 3590 nM. As for `Cc1nnc(-c2c(CCc3ccc(F)cc3)nc3c(c2-c2ccc(C(=O)N[C@@H]4COc5ccccc54)s2)C(=O)N2CCC[C@@H]32)o1` [Compound 10, N—((S)-2,3-dihydrobenzofuran-3-yl)-5-((S)-2-(4-fluorophenethyl)-3-(5-methyl-1,3,4-oxadiazol-2-yl)-5-oxo-7,8,9,9a-tetrahydro-5H-pyrido[2,3-a]pyrrolizin-4-yl)thiophene-2-carboxamide], the 50% effective concentration (EC50) amounted to 66.7 nM. Consider `Cc1nnc(-c2c(CCc3ccc(F)cc3)nc3c(c2-c2ccc(C(=O)NC4CC(O)c5ccccc54)s2)C(=O)N2CCC[C@@H]32)o1` (stereo partly drawn) [Compound 11, 5-((S)-2-(4-fluorophenethyl)-3-(5-methyl-1,3,4-oxadiazol-2-yl)-5-oxo-7,8,9,9a-tetrahydro-5H-pyrido[2,3-a]pyrrolizin-4-yl)-N-(3-hydroxy-2,3-dihydro-1H-inden-1-yl)thiophene-2-carboxamide], for which the EC50 is 48.1 nM. As for `Cc1nnc(-c2c(CCc3ccc(F)cc3)nc3c(c2-c2ccc(C(=O)NCc4cncc(F)c4)s2)C(=O)N2CCC[C@@H]32)o1` [Compound 12, (S)-5-(2-(4-fluorophenethyl)-3-(5-methyl-1,3,4-oxadiazol-2-yl)-5-oxo-7,8,9,9a-tetrahydro-5H-pyrido[2,3-a]pyrrolizin-4-yl)-N-((5-fluoropyridin-3-yl)methyl)thiophene-2-carboxamide], the figure is 113 nM; as for `COc1cccc2c1CC[C@H]2NC(=O)c1ccc(-c2c3c(nc(CCc4ccc(F)cc4)c2-c2nnc(C)o2)[C@@H]2CCCN2C3=O)s1` [Compound 13, N—[(R)-4-methoxy-1-indanyl]-5-((2S)-11-[2-(p-fluorophenyl)ethyl]-10-(5-methyl-1,3,4-oxadiazol-2-yl)-7-oxo-6,12-diazatricyclo[6.4.0.0^2,6]dodeca-1(12),8,10-trien-9-yl}-2-thenamide], 29.7 nM; as for `Cc1cnc(-c2c(CCc3ccc(F)cc3)nc3c(c2-c2ccc(C(=O)NCc4ccc(F)c(F)c4)s2)C(=O)N2CCC[C@@H]32)o1` [Compound 14, N-(3,4-difluorophenyl)methyl-5-{(2S)-11-[2-(p-fluorophenyl)ethyl]-10-(5-methyl-1,3-oxazol-2-yl)-7-oxo-6,12-diazatricyclo[6.4.0.0^2,6]dodeca-1(8),9,11-trien-9-yl)-2-thenamide], 12.6 nM. For `Cc1nnc(-c2c(CCc3ccc(F)cc3)nc3c(c2-c2ccc(C(=O)N[C@@H]4CCc5ccccc54)s2)C(=O)NC[C@H]3C(C)C)o1` [Compound 16, N—((R)-2,3-dihydro-1H-inden-1-yl)-5-((R)-2-(4-fluorophenethyl)-8-isopropyl-3-(5-methyl-1,3,4-oxadiazol-2-yl)-5-oxo-5,6,7,8-tetrahydro-1,6-naphthyridin-4-yl)thiophene-2-carboxamide] the value was 2370 nM; for `Cc1nnc(-c2c(CCc3ccc(F)cc3)nc3c(c2-c2ccc(C(=O)NCc4ccc(F)c(F)c4)s2)C(=O)N2CCCC[C@@H]32)o1` [Compound 20], 79 nM. On to `CC(C)c1nnc(-c2c(CCc3ccc(F)cc3)nc3c(c2-c2ccc(C(=O)NCc4ccc(F)c(F)c4)s2)C(=O)N2CCC[C@@H]32)o1` [Compound 21], for which the EC50 is 37 nM. For `Cc1ccc(CCc2nc3c(c(-c4ccc(C(=O)NCc5ccc(F)c(F)c5)s4)c2-c2nnc(C)o2)C(=O)N2CCC[C@@H]32)cn1` [Compound 22] the value was 1130 nM; for `Cc1cnc(-c2c(CCc3ccc(F)cc3)nc3c(c2-c2ccc(C(=O)NCc4ccc(F)c(F)c4)s2)S(=O)(=O)N2CCC[C@@H]32)o1` [Compound 24], 80 nM; for `Cc1nnc(-c2c(COC3CCCCC3)nc3c(c2-c2ccc(C(=O)NCc4ccc(F)c(F)c4)s2)C(=O)N2CCC[C@@H]32)o1` [Compound 25], 512 nM. With `Cc1nnc(-c2c(COC3CCOCC3)nc3c(c2-c2ccc(C(=O)NCc4ccc(F)c(F)c4)s2)C(=O)N2CCC[C@@H]32)o1` [Compound 26], the EC50 came to 1600 nM. Turning to `Cc1nnc(-c2c(CCC3CCC(F)(F)CC3)nc3c(c2-c2ccc(C(=O)NCc4ccc(F)c(F)c4)s2)C(=O)N2CCC[C@@H]32)o1` [Compound 27], the EC50 is 174 nM. `Cc1nnc(-c2c(CCc3ccc(F)cc3)nc3c(c2-c2ccc(C(=O)N[C@@H]4CCc5ncccc54)s2)C(=O)N2CCC[C@@H]32)o1` [Compound 28]: the half-maximal effective concentration (EC50) was 315 nM. `Cc1ncoc1-c1c(CCc2ccc(F)cc2)nc2c(c1-c1ccc(C(=O)NCc3ccc(F)c(F)c3)s1)C(=O)N1CCC[C@@H]21` [Compound 31, (S)—N-(3,4-difluorobenzyl)-5-(2-(4-fluorophenethyl)-3-(4-methyloxazol-5-yl)-5-oxo-7,8,9,9a-tetrahydro-5H-pyrido[2,3-a]pyrrolizin-4-yl)thiophene-2-carboxamide]: the concentration giving a half-maximal response (EC50) was 41.2 nM.

For the compound `Cc1nnc(-c2c(COc3ccc(F)cc3)nc3c(c2-c2ccc(C(=O)N[C@@H]4CCc5ncccc54)s2)C(=O)N2CCC[C@@H]32)o1` [Compound 32, N—[(R)-4-aza-1-indanyl]-5-{(2S)-11-[(p-fluorophenoxy)methyl]-10-(5-methyl-1,3,4-oxadiazol-2-yl)-7-oxo-6,12-diazatricyclo[6.4.0.0^2,6]dodeca-1(8),9,11-trien-9-yl}-2-thenamide], the EC50 turned out to be 728 nM. As for `Cc1ncoc1-c1c(CCc2ccc(F)cc2)nc2c(c1-c1ccc(C(=O)NCc3ccc(F)c(F)c3)s1)S(=O)(=O)N1CCC[C@@H]21` [Compound 33, (S)—N-(3,4-difluorobenzyl)-5-(2-(4-fluorophenethyl)-3-(4-methyloxazol-5-yl)-5,5-dioxido-7,8,9,9a-tetrahydropyrrolo[1′,2′:2,3]isothiazolo[4,5-b]pyridin-4-yl)thiophene-2-carboxamide], the figure is 52.5 nM; as for `Cc1nc(C)c(-c2c(CCc3ccc(F)cc3)nc3c(c2-c2ccc(C(=O)NCc4ccc(F)c(F)c4)s2)C(=O)N2CCC[C@@H]32)o1` [Compound 34, (S)—N-(3,4-difluorobenzyl)-5-(3-(2,4-dimethyloxazol-5-yl)-2-(4-fluorophenethyl)-5-oxo-7,8,9,9a-tetrahydro-5H-pyrido[2,3-a]pyrrolizin-4-yl)thiophene-2-carboxamide], 20.5 nM.

Turning to `Cc1nnc(-c2c(CCOC(C)C)nc3c(c2-c2ccc(C(=O)NCc4ccc(F)c(F)c4)s2)C(=O)N2CCC[C@@H]32)o1` [Compound 35, (S)—N-(3,4-difluorobenzyl)-5-(2-(2-isopropoxyethyl)-3-(5-methyl-1,3,4-oxadiazol-2-yl)-5-oxo-7,8,9,9a-tetrahydro-5H-pyrido[2,3-a]pyrrolizin-4-yl)thiophene-2-carboxamide], the half-maximal effective concentration (EC50) is greater than 100 nM. For `Cc1nnc(-c2c(CCc3ccc(F)cc3)nc3c(c2-c2cc4ccnc(NCc5ccc(F)c(F)c5)c4s2)C(=O)N2CCC[C@@H]32)o1` [Compound 40, (S)-4-(7-((3,4-difluorobenzyl)amino)thieno[2,3-c]pyridin-2-yl)-2-(4-fluorophenethyl)-3-(5-methyl-1,3,4-oxadiazol-2-yl)-7,8,9,9a-tetrahydro-5H-pyrido[2,3-a]pyrrolizin-5-one] the value was 20.2 nM; for `Cc1cnc(-c2c(CCc3ccc(F)cc3)nc3c(c2-c2cc4ccnc(NCc5ccc(F)c(F)c5)c4s2)C(=O)N2CCC[C@@H]32)o1` [Compound 41], 22.8 nM.

The values above are taken from patent US20250051355A1, “COMPOUNDS, COMPOSITIONS, AND METHODS” (ACONCAGUA BIO, INC., priority 2023, published 2025).
